Data reported in patent US20210347794A1, “Phosphate Derivatives of Indole Compounds and Their Use” (ARIAGEN, INC., priority 2018, published 2021).

Assays:
[1] = In vivo pharmacokinetic study in dogs, oral dose of ARI-158; design: species or system male beagle dogs; details: for Plasma Concentration / AUC(0-inf) / AUC(0-t) / Cmax / Tmax / half-life / concentration at 0.083 h / concentration at 0.25 h / concentration at 0.5 h / concentration at 1 h / concentration at 2 h / concentration at 4 h / concentration at 6 h / concentration at 8 h: dogs, 10 mg/kg oral dose of ARI-158; for AUC(0-inf) / AUC(0-t) / Cmax / Tmax / half-life / concentration at 0.083 h / concentration at 0.25 h / concentration at 0.5 h / concentration at 1 h / concentration at 2 h / concentration at 4 h / concentration at 6 h / concentration at 8 h: male, beagle, dog, plasma, po, 10 mg/kg
Method: This example describes pharmacokinetic (PK) studies of ARI-158 and ARI-160 in dogs and rats, respectively. In the present studies, the test compounds were given to groups of male beagle dogs and rats (N=3 in each group) intravenously (IV) at 2 mg/kg or orally (PO) at 10 mg/kg. IV doses were formulated in DMSO, while PO doses were formulated in a 50/50 mixture of PEG400 and Tween 80. Blood samples were collected at pre-dose and over a period of 24 hours post-dose. Plasma concentrations of the indolo-phosphoramidate compounds were determined by HPLC.

EMT-6 cancer cells = assay: Anti-tumor activity in EMT-6 syngeneic mouse tumor model; assay type: in vivo; details: 80 mpk
Method: This example describes in vivo studies that evaluated the anti-cancer efficacy of ARI-158 and ARI-160 in syngeneic mouse tumor models. Mice implanted subcutaneously with EMT-6 cancer cells were treated with ARI-158 and ARI-160, or vehicle controls, as described below.
A monolayer culture of tumor cells was maintained in vitro in DMEM or RPMI1640 medium supplemented with 10% fetal bovine serum at 37° C. in an atmosphere of 5% CO2. Cells in exponential growth phase were harvested and quantitated by cell counter before tumor inoculation.
EMT-6 syngeneic mouse tumor models were generated by inoculating female BALB/C 6 mice with EMT-6 cancer cells at their right lower flank.
Each mouse was inoculated subcutaneously with tumor cells in 0.1 mL of PBS. Treatments were started when the mean tumor size reached approximately 80-120 mm^3 (around 100 mm^3). The administration of the test compounds and the animal number in each study group are shown in the study design. The date of tumor cell inoculation was denoted as day 0.
ARI-158 and ARI-160 were dissolved in DMSO at the final concentration of 26.7 mg/ml and stored at room temperature.
Randomization of animals was started when the mean tumor size reached approximately 90 mm^3 to form the mouse study groups. The randomization was performed based on “Matched distribution” method using the multi-task method (StudyDirector™ software, version 3.1.399.19)/randomized block design. […]
Tumor volumes were measured twice per week in two dimensions using a caliper, and the volume was expressed in mm^3 using the formula: […]
where V is tumor volume, L is tumor length (the longest tumor dimension) and W is tumor width (the longest tumor dimension perpendicular to L). Dosing as well as tumor and body weight measurements was conducted in a Laminar Flow Cabinet. The body weights and tumor volumes were measured by using StudyDirector™ software (version 3.1.399.19).
Tumor growth inhibition percentage (TGI %) is an indicator for antitumor activity of a drug compound, and expressed as: […]
where T and C are the mean tumor volume (or weight) of the treated and control groups, respectively, on a given day. Statistical analysis of the difference in mean tumor volume (MTV) among the groups was conducted using the data collected on the day when the MTV of the vehicle group reached the humane endpoints, so that TGI could be derived for all or most mice enrolled in the study.

CCC(=O)c1csc(C(=O)c2cn(P(=O)([O-])[O-])c3cc(F)ccc23)n1.[Na+].[Na+] [ARI-158]
Plasma Concentration ([1]; time 0 h, Dog 10): BLQ
Plasma Concentration ([1]; time 0 h, Dog 11): BLQ
Plasma Concentration ([1]; time 0 h, Dog 12): BLQ
Plasma Concentration ([1]; time 8 h, Dog 11): BLQ
Plasma Concentration ([1]; time 24 h, Dog 10): BLQ
Plasma Concentration ([1]; time 24 h, Dog 11): BLQ
Plasma Concentration ([1]; time 24 h, Dog 12): BLQ
AUC(0-inf) ([1]; Dog 10): 1.02 µg·h/mL
AUC(0-t) ([1]; Dog 10): 1.02 µg·h/mL
Cmax ([1]; Dog 10): 0.786 µg/mL
Tmax ([1]; Dog 10): 30 min
half-life ([1]; Dog 10): 82.2 min
AUC(0-inf) ([1]; Dog 11): 0.677 µg·h/mL
AUC(0-t) ([1]; Dog 11): 0.675 µg·h/mL
Cmax ([1]; Dog 11): 0.561 µg/mL
Tmax ([1]; Dog 11): 30 min
half-life ([1]; Dog 11): 39.2 min
AUC(0-inf) ([1]; Dog 12): 0.676 µg·h/mL
AUC(0-t) ([1]; Dog 12): 0.669 µg·h/mL
Cmax ([1]; Dog 12): 0.275 µg/mL
Tmax ([1]; Dog 12): 60 min
half-life ([1]; Dog 12): 61.2 min
AUC(0-inf) ([1]; Mean): 0.791 µg·h/mL
AUC(0-t) ([1]; Mean): 0.787 µg·h/mL
Cmax ([1]; Mean): 0.541 µg/mL
Tmax ([1]; Mean): 40 min
half-life ([1]; Mean): 60.6 min
concentration at 0.083 h ([1]; Dog 10): 0.153 µg/mL
concentration at 0.083 h ([1]; Dog 11): 0.149 µg/mL
concentration at 0.083 h ([1]; Dog 12): 0.0143 µg/mL
concentration at 0.083 h ([1]; Mean): 0.105 µg/mL
concentration at 0.25 h ([1]; Dog 10): 0.438 µg/mL
concentration at 0.25 h ([1]; Dog 11): 0.414 µg/mL
concentration at 0.25 h ([1]; Dog 12): 0.0873 µg/mL
concentration at 0.25 h ([1]; Mean): 0.313 µg/mL
concentration at 0.5 h ([1]; Dog 10): 0.786 µg/mL
concentration at 0.5 h ([1]; Dog 11): 0.561 µg/mL
concentration at 0.5 h ([1]; Dog 12): 0.178 µg/mL
concentration at 0.5 h ([1]; Mean): 0.508 µg/mL
concentration at 1 h ([1]; Dog 10): 0.677 µg/mL
concentration at 1 h ([1]; Dog 11): 0.311 µg/mL
concentration at 1 h ([1]; Dog 12): 0.275 µg/mL
concentration at 1 h ([1]; Mean): 0.421 µg/mL
concentration at 2 h ([1]; Dog 10): 0.128 µg/mL
concentration at 2 h ([1]; Dog 11): 0.102 µg/mL
concentration at 2 h ([1]; Dog 12): 0.158 µg/mL
concentration at 2 h ([1]; Mean): 0.129 µg/mL
concentration at 4 h ([1]; Dog 10): 0.0112 µg/mL
concentration at 4 h ([1]; Dog 11): 0.0144 µg/mL
concentration at 4 h ([1]; Dog 12): 0.0698 µg/mL
concentration at 4 h ([1]; Mean): 0.0318 µg/mL
concentration at 6 h ([1]; Dog 10): 0.00328 µg/mL
concentration at 6 h ([1]; Dog 11): 0.00147 µg/mL
concentration at 6 h ([1]; Dog 12): 0.0141 µg/mL
concentration at 6 h ([1]; Mean): 0.00628 µg/mL
concentration at 8 h ([1]; time 8 h, Dog 10): 0.00147 µg/mL
concentration at 8 h ([1]; time 8 h, Dog 12): 0.00462 µg/mL
concentration at 8 h ([1]; time 8 h, Mean): 0.00305 µg/mL
absorption ([1]; oral administration in dogs, compared with ARI-143): absorbed much more efficiently than ARI-143
anti-tumor efficacy (TGI) comparison (EMT-6 cancer cells): better efficacy than ARI-160
TGI (EMT-6 cancer cells; study day 6): −0.01%
TGI (EMT-6 cancer cells; study day 10): 2.92%
TGI (EMT-6 cancer cells; study day 13): −1.75%
TGI (EMT-6 cancer cells; study day 17): 17.21%
TGI (EMT-6 cancer cells; study day 20): 38.27%
TGI (EMT-6 cancer cells; study day 24): 44.41%
TGI (EMT-6 cancer cells; study day 27): 42.16%
TGI (EMT-6 cancer cells; study day 31): 39.97%
